# Literature values in patent publication US4513029A, “Sea water antifouling method” (priority 1982, dated 1985).
# Tested on: mice
# Details: oral administration to mice (after 24 hours)
row,Compound,LD50
1,[Cu].[O]=[Cu] [copper suboxide],"not more than 1,000 mg/kg"
2,CC(=O)[O-].c1cc[c]([Sn+]([c]2ccccc2)[c]2ccccc2)cc1 [tripenyltin acetate],"not more than 1,000 mg/kg"
3,[Cl][Sn]([c]1ccccc1)([c]1ccccc1)[c]1ccccc1 [triphenyltin chloride],"not more than 1,000 mg/kg"
4,[OH][Sn]([c]1ccccc1)([c]1ccccc1)[c]1ccccc1 [triphenyltin hydroxide],"not more than 1,000 mg/kg"
